One may read the inhibition in vivo as the drop in the measured response relative to a control, in per cent.

Molecules are shown by their SMILES.

The subject of data set [1] is Rattus norvegicus. Briefly: Anti-inflammatory activity inRattus norvegicus albino (rat) assessed as inhibition of carrageenan-induced paw edema at 100 mg/kg, po administered 3 hr prior challenge measured after 1 hr post challenge. The class given is functional. On the technique in general: The carrageenan paw model is a standard test of acute inflammation.
Data set [2] deals with Rattus norvegicus. Kind of data set: Anti-inflammatory activity inRattus norvegicus albino (rat) assessed as inhibition of carrageenan-induced paw edema at 100 mg/kg, po administered 2 hr prior challenge measured after 1 hr post challenge. It is filed as functional.
Data set [3] has as its system Rattus norvegicus. Briefly: Anti-inflammatory activity inRattus norvegicus albino (rat) assessed as inhibition of carrageenan-induced paw edema at 100 mg/kg, po administered 1 hr prior challenge measured after 1 hr post challenge. It is filed as functional.
In data set [4] the test system is Rattus norvegicus. Briefly: Toxicity inRattus norvegicus albino (rat) assessed as ulcerogenicity at 100 mg/kg, po measured after 1 hr. Particulars: in vivo. The class given is organism-based. The arrangement: dose 100 mg/kg, route oral.

On to `Cc1cc(-c2ccc(Cl)cc2)n(Cc2n[nH]c(=S)o2)n1`, for which the inhibition in vivo at 100 mg/kg with Rattus norvegicus [1] came out at 39.2%; in the data set with Rattus norvegicus [2] it was 31.2%; in the data set on Rattus norvegicus [3], 15.4%.

As for `Cc1cc(-c2ccc(Cl)cc2)n(-c2ccc(S(N)(=O)=O)cc2)n1`, in the data set with Rattus norvegicus [4], the UI came out at 5.2. In addition, the results for the inhibition in vivo at 100 mg/kg with Rattus norvegicus [1], in the data set on Rattus norvegicus [2] and in the data set with Rattus norvegicus [3] were 62.5%, 49.8% and 37.2%, respectively.

Regarding `Cc1cc(-c2ccc(Cl)cc2)n(-c2ccc(S(=O)(=O)Nc3nccs3)cc2)n1`, the inhibition in vivo at 100 mg/kg stood at 62% with Rattus norvegicus [1], 44.3% with Rattus norvegicus [2] and 34.1% with Rattus norvegicus [3].

In the case of `Cc1cc(C)n(Cc2n[nH]c(=S)o2)n1`, the inhibition in vivo at 100 mg/kg in the data set with Rattus norvegicus [1] came to 34.9%; in the data set with Rattus norvegicus [2] it was 21.5%; with Rattus norvegicus [3], 14.4%.

Turning to `Cc1cc(-c2ccccc2)n(Cc2n[nH]c(=S)o2)n1`, the inhibition in vivo at 100 mg/kg was 48.7% in the data set with Rattus norvegicus [1], 34.2% with Rattus norvegicus [2] and 26.3% in the data set on Rattus norvegicus [3].

Take `Cc1cccc(NC(=S)NNC(=O)Cn2nc(C)cc2C)c1`: the inhibition in vivo at 100 mg/kg with Rattus norvegicus [1] is 40.8%; in the data set on Rattus norvegicus [2] it was 22.9%; in the data set with Rattus norvegicus [3], 12.3%.

As to `COc1ccc(NC(=S)NNC(=O)Cn2nc(C)cc2C)cc1`, the inhibition in vivo at 100 mg/kg worked out at 46.4% in the data set on Rattus norvegicus [1], 41.4% in the data set with Rattus norvegicus [2] and 30.3% in the data set with Rattus norvegicus [3].

For the compound `Cc1cc(C)n(CC(=O)NNC(=S)Nc2ccc([N+](=O)[O-])cc2)n1`, the UI with Rattus norvegicus [4] worked out at 18.6. The figures for the inhibition in vivo at 100 mg/kg in the data set on Rattus norvegicus [1], with Rattus norvegicus [2] and in the data set with Rattus norvegicus [3] were 62.7%, 44.4% and 36.1%, respectively.

As for `Cc1cccc(-n2c(Cn3nc(C)cc3C)n[nH]c2=S)c1`, the inhibition in vivo at 100 mg/kg in the data set with Rattus norvegicus [1] is 33.4%; with Rattus norvegicus [2], 22.7%; with Rattus norvegicus [3] it was 13.2%.

With `Cc1cc(C)n(Cc2n[nH]c(=S)n2-c2ccc([N+](=O)[O-])cc2)n1`, the figures for the inhibition in vivo at 100 mg/kg with Rattus norvegicus [1], in the data set on Rattus norvegicus [2] and in the data set with Rattus norvegicus [3] were 36.4%, 27.1% and 16.6%, respectively.

Regarding `Cc1cc(C)n(Cc2nnc(Nc3ccc([N+](=O)[O-])cc3)s2)n1`, the UI with Rattus norvegicus [4] is 15.6. For the same compound, the inhibition in vivo at 100 mg/kg in the data set with Rattus norvegicus [1] is 64.9%; in the data set with Rattus norvegicus [2], 50%; in the data set on Rattus norvegicus [3], 37.5%.

For the compound `CCCNc1nnc(Cn2nc(C)cc2-c2ccccc2)s1`, the inhibition in vivo at 100 mg/kg in the data set on Rattus norvegicus [1] was 54.1%; in the data set with Rattus norvegicus [2], 42.2%; with Rattus norvegicus [3], 26.9%.

Turning to `Cc1cc(-c2ccc(Cl)cc2)n(Cc2nnc(Nc3ccc([N+](=O)[O-])cc3)s2)n1`, the inhibition in vivo at 100 mg/kg with Rattus norvegicus [1] came to 61.1%; with Rattus norvegicus [2] it was 45%; with Rattus norvegicus [3] it was 32.8%.

`Cc1ccc(-c2cc(C(F)(F)F)nn2-c2ccc(S(N)(=O)=O)cc2)cc1` [CELECOXIB]: the inhibition in vivo at 100 mg/kg is 63.8% in the data set on Rattus norvegicus [1], 45.8% in the data set on Rattus norvegicus [2] and 31.4% in the data set on Rattus norvegicus [3].

For the compound `COc1ccc2c(c1)c(CC(=O)O)c(C)n2C(=O)c1ccc(Cl)cc1` [INDOMETHACIN], the UI in the data set with Rattus norvegicus [4] was 20.4. In addition, the results for the inhibition in vivo at 100 mg/kg with Rattus norvegicus [1], with Rattus norvegicus [2] and in the data set with Rattus norvegicus [3] were 60.8%, 40.1% and 31.5%, respectively.
